Here are results for eleven molecules from ChEMBL document CHEMBL1201862, “PubChem BioAssay data set” (2004).

Some test systems named below: UACC-257; A549; M19-MEL; HCT-116; SF-539; OVCAR-5; NCI-H460; SK-MEL-5; SF-268; SNB-75; SNB-19; LOX IMVI; PC-3; CAKI-1; NCI/ADR-RES; NCI-H226; T47D; MDA-N; HL-60; BT-549.
What all share (experiment): NCI tumour cell line growth inhibition, 48 h

Each structure is given as a SMILES string.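 Results reflect a 48-hour exposure of cells in 96-well plates to compound at five concentrations. GI50 is the concentration that inhibits growth by half.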 Calls of active or inactive are those of the source. No stated cut-off is given here; in the data, active = GI50 up to about 1.1 µM and inactive = higher.

For `COc1cc(-c2cc(=O)c3cc(C)c(C)c(C(=O)O)c3o2)cc(OC)c1OC`, the GI50 with UACC-257, in the test with A549, in the test with M19-MEL, in the test on HCT-116, in the test with SF-539 and in the test on OVCAR-5 was > 100 µM (inactive) in each case. Moreover, the GI50 in the test with NCI-H460 is > 100 µM (inactive); with SK-MEL-5, > 100 µM (inactive); with SF-268, > 100 µM (inactive); with SNB-75 it was 2.32 µM (inactive); in the test with SNB-19 it was > 100 µM (inactive); in the test on LOX IMVI, > 100 µM (inactive).

Take `O=C1C(Cl)=C(N2CCN(c3ccccn3)CC2)C(=O)c2c(O)ccc(O)c21`: the GI50 is 1.94 µM (inactive) in the test on PC-3; 2.08 µM (inactive) in the test with CAKI-1; 2.38 µM (inactive) with NCI/ADR-RES; 1.84 µM (inactive) in the test with UACC-257; 4.69 µM (inactive) in the test with NCI-H226; 6.49 µM (inactive) in the test on A549. For the same molecule, the GI50 was 1.7 µM (inactive) with HCT-116; 1.79 µM (inactive) in the test on SF-539; 1.3 µM (inactive) in the test on T47D; 6.08 µM (inactive) in the test on OVCAR-5; 3.07 µM (inactive) with NCI-H460; 1.21 µM (inactive) in the test with MDA-N. In addition, the GI50 was 0.128 µM (active) in the test with HL-60; 1.42 µM (inactive) in the test on SK-MEL-5; 2.59 µM (inactive) in the test with SF-268; 1.9 µM (inactive) in the test on BT-549; 1.89 µM (inactive) in the test on SNB-75; 5.92 µM (inactive) in the test with SNB-19. Further, in the test with LOX IMVI, the GI50 is 0.157 µM (active).

In the case of `NC(C(F)(F)F)(C(F)(F)F)P(=O)(c1ccccc1)c1ccccc1`, the GI50 in the test with PC-3, with CAKI-1, with NCI/ADR-RES, with UACC-257, with NCI-H226 and with A549 was > 100 µM (inactive) each time. The GI50 in the test with HCT-116, with SF-539, in the test on T47D, in the test with OVCAR-5, with NCI-H460 and in the test with MDA-N was > 100 µM (inactive) throughout. For the same molecule, the GI50 in the test on HL-60, with SK-MEL-5, in the test with SF-268, in the test with BT-549, in the test with SNB-75 and with SNB-19 was > 100 µM (inactive) in each case. Moreover, in the test with LOX IMVI, the GI50 is > 100 µM (inactive).

For `CC(=O)OC(C)(C)/N=N/c1ccc(Br)cc1`, the GI50 with PC-3 is 24.3 µM (inactive); in the test with CAKI-1, 16.7 µM (inactive); in the test on NCI/ADR-RES, 14.4 µM (inactive); with UACC-257 it was 5.45 µM (inactive); in the test on NCI-H226, 2.96 µM (inactive); in the test with A549 it was 6.04 µM (inactive). The GI50 is 0.851 µM (active) with HCT-116; 0.841 µM (active) with SF-539; 1.09 µM (active) in the test with T47D; 1.66 µM (inactive) with OVCAR-5; 0.946 µM (active) in the test on NCI-H460; 0.178 µM (active) in the test on MDA-N. The GI50 with HL-60 was 0.653 µM (active); with SK-MEL-5, 0.209 µM (active); in the test on SF-268, 17.4 µM (inactive); in the test on BT-549, 97.7 µM (inactive); with SNB-75 it was > 53.5 µM (inactive); in the test with SNB-19 it was > 68.2 µM (inactive). The GI50 in the test with LOX IMVI is 3.09 µM (inactive).

In the case of `COc1cc2oc(-c3ccc4c(c3)OCO4)c(OC)c(=O)c2c(OC)c1OC`, the GI50 was > 100 µM (inactive) in the test with PC-3; 19.1 µM (inactive) in the test on CAKI-1; > 100 µM (inactive) in the test on NCI/ADR-RES; > 100 µM (inactive) in the test on UACC-257; > 100 µM (inactive) with NCI-H226; > 100 µM (inactive) in the test with A549. For the same molecule, the GI50 was > 100 µM (inactive) with HCT-116; 45.2 µM (inactive) with SF-539; > 100 µM (inactive) in the test on T47D; > 100 µM (inactive) in the test on OVCAR-5; > 100 µM (inactive) in the test with NCI-H460; > 100 µM (inactive) in the test with MDA-N. Moreover, the GI50 in the test on HL-60 was 83.2 µM (inactive); in the test with SK-MEL-5 it was 51.5 µM (inactive); in the test with SF-268, 27.9 µM (inactive); in the test with BT-549, 38.7 µM (inactive); in the test with SNB-75, 27.2 µM (inactive); in the test on SNB-19, 44.3 µM (inactive). For the same molecule, in the test with LOX IMVI, the GI50 is > 100 µM (inactive).

Consider `CN(C)Cc1cc(/N=N/c2ccc(Cl)cc2)ccc1O`, for which the GI50 in the test on PC-3 was 14.7 µM (inactive); in the test with CAKI-1 it was 15.4 µM (inactive); with NCI/ADR-RES it was 17.7 µM (inactive); in the test on UACC-257, 18.7 µM (inactive); with NCI-H226, 14.6 µM (inactive); with A549 it was 16 µM (inactive). Besides, the GI50 was 16.7 µM (inactive) in the test with HCT-116; 18.1 µM (inactive) in the test on SF-539; 12.4 µM (inactive) with T47D; 12.1 µM (inactive) with OVCAR-5; 13.8 µM (inactive) in the test on NCI-H460; 19.5 µM (inactive) in the test with MDA-N. Besides, the GI50 is 13.5 µM (inactive) in the test with HL-60; 14.4 µM (inactive) in the test with SK-MEL-5; 14.8 µM (inactive) in the test on SF-268; 10.7 µM (inactive) in the test on BT-549; 14.9 µM (inactive) in the test with SNB-75; 17.3 µM (inactive) in the test with SNB-19. The GI50 with LOX IMVI is 11.4 µM (inactive).

In the case of `[N-]=[N+]=Nc1ccc2c(c1)Sc1ccccc1N2CCCCN1CCN(C(=O)CCNC(=O)Cc2ccc(C(=O)c3ccccc3)cc2)CC1`, the GI50 is 3.1 µM (inactive) in the test on PC-3; 8.61 µM (inactive) in the test with CAKI-1; 4.05 µM (inactive) in the test with NCI/ADR-RES; 4.05 µM (inactive) in the test on UACC-257; 13.6 µM (inactive) in the test with NCI-H226; 4.52 µM (inactive) in the test with A549. Besides, the GI50 in the test on HCT-116 was 3.54 µM (inactive); in the test on SF-539, 6.27 µM (inactive); in the test on T47D, 5.36 µM (inactive); in the test with OVCAR-5 it was 6.53 µM (inactive); in the test with NCI-H460 it was 3.72 µM (inactive); in the test with MDA-N it was 3.75 µM (inactive). For the same molecule, the GI50 was 2.54 µM (inactive) in the test on HL-60; 2.11 µM (inactive) with SK-MEL-5; 3.84 µM (inactive) with SF-268; 5.06 µM (inactive) in the test with BT-549; 5.21 µM (inactive) in the test with SNB-75; 8.17 µM (inactive) in the test with SNB-19. The GI50 in the test with LOX IMVI is 2.23 µM (inactive).

For the molecule `Cc1ccc(/C=N/Nc2nncc3ccccc23)s1`, the GI50 was 96.8 µM (inactive) with PC-3; > 100 µM (inactive) with CAKI-1; 48 µM (inactive) with NCI/ADR-RES; > 100 µM (inactive) with UACC-257; > 69.2 µM (inactive) with NCI-H226; > 100 µM (inactive) in the test on A549. Also, the GI50 is 59.6 µM (inactive) in the test on HCT-116; 52.6 µM (inactive) with SF-539; > 100 µM (inactive) in the test on T47D; > 100 µM (inactive) in the test with OVCAR-5; > 100 µM (inactive) in the test with NCI-H460; > 61.4 µM (inactive) in the test with MDA-N. Besides, the GI50 with HL-60 was > 100 µM (inactive); in the test on SK-MEL-5, > 100 µM (inactive); in the test on SF-268, > 58.1 µM (inactive); with BT-549 it was > 55.8 µM (inactive); with SNB-75 it was > 44.2 µM (inactive); in the test with SNB-19 it was > 100 µM (inactive). The GI50 with LOX IMVI is > 61.2 µM (inactive).

On to `O=C(COc1ccc(OCC(=O)N2C(=O)CN(c3ccccc3)C2=S)cc1)N1C(=O)CN(c2ccccc2)C1=S`, for which the GI50 with PC-3 was > 25 µM (inactive); with CAKI-1, > 57.7 µM (inactive); in the test on NCI/ADR-RES, > 55.7 µM (inactive); in the test on UACC-257 it was > 54.7 µM (inactive); in the test on NCI-H226, > 100 µM (inactive); in the test with A549, > 56.1 µM (inactive). The GI50 in the test on HCT-116 is > 61.4 µM (inactive); with SF-539, > 100 µM (inactive); in the test with T47D, > 58.3 µM (inactive); in the test on OVCAR-5 it was > 50.9 µM (inactive); in the test on NCI-H460 it was > 57.7 µM (inactive); with MDA-N it was > 63.1 µM (inactive). Also, the GI50 was > 100 µM (inactive) in the test on HL-60; > 25 µM (inactive) in the test with SK-MEL-5; > 59.4 µM (inactive) in the test with SF-268; > 61.4 µM (inactive) in the test with BT-549; > 25 µM (inactive) in the test with SNB-75; > 48.4 µM (inactive) in the test on SNB-19. The GI50 with LOX IMVI was > 25 µM (inactive).

Consider `Nc1nc(O)nc2snnc12`, for which the GI50 in the test with PC-3 is > 100 µM (inactive); in the test on CAKI-1, 1.77 µM (inactive); in the test with NCI/ADR-RES it was 32.6 µM (inactive); in the test on UACC-257 it was 24.7 µM (inactive); with NCI-H226, > 36.1 µM (inactive); in the test on A549, > 100 µM (inactive). Moreover, the GI50 was 7.89 µM (inactive) in the test with HCT-116; 15.9 µM (inactive) with SF-539; 4.57 µM (inactive) with T47D; > 100 µM (inactive) with OVCAR-5; > 100 µM (inactive) in the test with NCI-H460; 8.28 µM (inactive) in the test on MDA-N. Besides, the GI50 was 2.79 µM (inactive) in the test on HL-60; > 74.3 µM (inactive) in the test on SK-MEL-5; 5.04 µM (inactive) with SF-268; 3.54 µM (inactive) in the test on BT-549; 5.28 µM (inactive) in the test with SNB-75; > 87.9 µM (inactive) in the test on SNB-19. Moreover, the GI50 with LOX IMVI was 2.92 µM (inactive).

Turning to `COc1ccc2c(c1)C1Oc3ccccc3CC1CO2` (configuration not stated), the GI50 is 46.1 µM (inactive) in the test on PC-3; 56.8 µM (inactive) with CAKI-1; 42.1 µM (inactive) with NCI/ADR-RES; 35.9 µM (inactive) with UACC-257; > 100 µM (inactive) with NCI-H226; 55.3 µM (inactive) in the test on A549. Moreover, the GI50 in the test with HCT-116 is 44.7 µM (inactive); with SF-539, > 100 µM (inactive); with T47D it was 26.2 µM (inactive); in the test with OVCAR-5 it was > 100 µM (inactive); with NCI-H460, 96.8 µM (inactive); in the test with MDA-N, 37.6 µM (inactive). For the same molecule, the GI50 with HL-60 is 21.2 µM (inactive); in the test with SK-MEL-5 it was 32.6 µM (inactive); with SF-268, > 100 µM (inactive); in the test with BT-549 it was 52.2 µM (inactive); in the test with SNB-75, 28.4 µM (inactive); in the test with SNB-19, > 100 µM (inactive). Besides, the GI50 in the test on LOX IMVI is 47.2 µM (inactive).
